pIC50, pKd: −log10 of the molar value. Structures can show the parent of a compound that is named as a salt.
Assays:
[1] = target: T1, full-length proMMP9(1-707) (SEQ ID NO:1) (Homo sapiens, UniProt P14780, R574P); experiment: proMMP9/MMP3 P126 Activation Assay; format: biochemical; details: 20 nM proMMP9, 20 nM MMP3, 80 min 37° C.
T1 construct: made in house; host or cells: HEK293 (proMMP9, secreted); E. coli (MMP3)
Procedure: The reaction volume was 50 μL. […] Reactivity of residual MMP3 towards P-126 substrate was minimal under these conditions.

[2] = target: proMMP13(1-268) (SEQ ID NO:7) (Homo sapiens, UniProt P45452); experiment: ThermoFluor binding assay with proMMP13(1-268); parameters: 6xHis (C); made in house; details: pH 7.0
Procedure: The ThermoFluor® (TF) assay is a 384-well plate-based binding assay that measures thermal stability of proteins (Biomol Screen 2001, 6, 429-40; Biochemistry 2005, 44, 5258-66). The experiments were carried out using instruments available from Johnson & Johnson Pharmaceutical Research & Development, LLC. TF dye used in all experiments was […] (1,8-ANS) (Invitrogen: A-47).
Compounds were arranged in a pre-dispensed plate (Greiner Bio-one: 781280), wherein compounds were serially diluted in 100% DMSO across 11 columns within a series. Columns 12 and 24 were used as DMSO reference and contained no compound. For multiple compound concentration-response experiments, the compound aliquots ([…]) were robotically predispensed directly into black 384-well polypropylene PCR microplates (Abgene: TF-0384/k) using a Cartesian Hummingbird liquid handler (DigiLab, Holliston, Mass.). Following compound dispense, protein and dye solutions were added to achieve the final assay volume of 3 μL. The assay solutions were overlayed with 1 μL of silicone oil (Fluka, type DC 200: 85411) to prevent evaporation.
Assay plates were robotically loaded onto a thermostatically controlled PCR-type thermal block and then heated from 40 to 90° C. at a ramp-rate of 1° C./min for all experiments. Fluorescence was measured by continuous illumination with UV light (Hamamatsu LC6) supplied via fiber optics and filtered through a band-pass filter (380-400 nm; >6 OD cutoff). Fluorescence emission of the entire 384-well plate was detected by measuring light intensity using a CCD camera (Sensys, Roper Scientific) filtered to detect 500±25 nm, resulting in simultaneous and independent readings of all 384 wells. A single image with 20-sec exposure time was collected at each temperature, and the sum of the pixel intensity in a given area of the assay plate was recorded vs temperature and fit to standard equations to yield the Tm (J Biomol Screen 2001, 6, 429-40).
Thermodynamic parameters necessary for fitting compound binding for each proMMP were estimated by differential scanning calorimetry (DSC) and from ThermoFluor® data. The heat capacity of unfolding for each protein was estimated from the molecular weight and from ThermoFluor® dosing data.
The proMMP13(1-268) (SEQ ID NO:7) protein sample preparations included a desalting buffer exchange step via a PD-10 gravity column (GE Healthcare). The desalting buffer exchange was performed prior to diluting the protein to the final assay concentration of 3.5 μM. The concentration of proMMP13(1-268) (SEQ ID NO:7) was estimated spectrophotometrically based on a calculated extinction coefficient of ε280=37000 M^−1cm^−1, a calculated molecular weight of 30.8 kDa, and calculated pI of 5.33. ThermoFluor® reference conditions were defined as follows: 100 μg/mL proMMP13(1-268) (SEQ ID NO:7), 25 μM 1,8-ANS, pH 7.0 Buffer (50 mM HEPES pH 7.0, 100 mM NaCl, 0.001% Tween-20, 2.5 mM MgCl2, 300 μM CaCl2). The thermodynamic parameters for proMMP13(1-268) (SEQ ID NO:7) are as follows: Tm (° C.)=67 (+/−0.1), ΔUH(Tm) (cal mol^−1)=107000(+/−5000), ΔUS(Tm) (cal mol^−1 K^−1)=318, ΔUCp (cal mol^−1 K^−1)=2600.

[3] = target: T2, proMMP9(20-445;ΔFnII) (SEQ ID NO:6) (Homo sapiens, UniProt P14780, DEL216-390); experiment: ThermoFluor binding assay with proMMP9(20-445;ΔFnII); details: pH 7.0
T2 construct: start methionine (N); made in house; host or cells: E. coli BL21(DE3) RIL
T2 sequence (P14780 with tags, fused parts or gaps DEL216-390): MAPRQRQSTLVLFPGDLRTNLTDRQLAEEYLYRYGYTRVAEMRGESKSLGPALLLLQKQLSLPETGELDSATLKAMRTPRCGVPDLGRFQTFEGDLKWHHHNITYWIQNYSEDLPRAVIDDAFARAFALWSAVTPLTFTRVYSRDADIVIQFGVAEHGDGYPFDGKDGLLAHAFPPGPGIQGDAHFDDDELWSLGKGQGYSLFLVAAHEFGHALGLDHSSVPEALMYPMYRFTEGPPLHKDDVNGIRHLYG
Outline: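 proMMP9(20-445;ΔFnII) at 2.8 μM with 50 μM 1,8-ANS in 50 mM HEPES pH 7.0, 100 mM NaCl, 0.001% Tween-20, 2.5 mM MgCl2, 300 μM CaCl2; compounds serially diluted in DMSO. Heated 40–90 °C at 1 °C/min, fluorescence read at 500±25 nm. Tm fit by standard equations; binding fit using DSC/TF-derived thermodynamic parameters.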

[4] = target: T3, proMMP9(67-444;ΔFnII) (SEQ ID NO:5) (Homo sapiens, UniProt P14780, DEL216-390); experiment: ThermoFluor binding assay with proMMP9(67-444;ΔFnII); details: pH 7.0
T3 construct: start methionine (N); made in house; host or cells: E. coli BL21(DE3) RIL
T3 sequence (P14780 with tags, fused parts or gaps DEL216-390): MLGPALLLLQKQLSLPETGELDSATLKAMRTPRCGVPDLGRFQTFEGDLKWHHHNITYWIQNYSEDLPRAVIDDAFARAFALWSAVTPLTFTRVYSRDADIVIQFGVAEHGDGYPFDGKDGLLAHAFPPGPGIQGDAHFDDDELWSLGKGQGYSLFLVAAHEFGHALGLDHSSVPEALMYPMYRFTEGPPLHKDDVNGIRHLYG
Outline: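 Thermal shift binding with 3.5 μM proMMP9(67-444;ΔFnII) and 50 μM 1,8-ANS in 50 mM HEPES pH 7.0, 100 mM NaCl, 2.5 mM MgCl2, 300 μM CaCl2, 0.001% Tween-20, with serially diluted compound. Heated 40 to 90° C at 1° C/min; fluorescence-derived Tm fitted using DSC/ThermoFluor thermodynamic parameters.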

T1 sequence (P14780 20-707 R574P): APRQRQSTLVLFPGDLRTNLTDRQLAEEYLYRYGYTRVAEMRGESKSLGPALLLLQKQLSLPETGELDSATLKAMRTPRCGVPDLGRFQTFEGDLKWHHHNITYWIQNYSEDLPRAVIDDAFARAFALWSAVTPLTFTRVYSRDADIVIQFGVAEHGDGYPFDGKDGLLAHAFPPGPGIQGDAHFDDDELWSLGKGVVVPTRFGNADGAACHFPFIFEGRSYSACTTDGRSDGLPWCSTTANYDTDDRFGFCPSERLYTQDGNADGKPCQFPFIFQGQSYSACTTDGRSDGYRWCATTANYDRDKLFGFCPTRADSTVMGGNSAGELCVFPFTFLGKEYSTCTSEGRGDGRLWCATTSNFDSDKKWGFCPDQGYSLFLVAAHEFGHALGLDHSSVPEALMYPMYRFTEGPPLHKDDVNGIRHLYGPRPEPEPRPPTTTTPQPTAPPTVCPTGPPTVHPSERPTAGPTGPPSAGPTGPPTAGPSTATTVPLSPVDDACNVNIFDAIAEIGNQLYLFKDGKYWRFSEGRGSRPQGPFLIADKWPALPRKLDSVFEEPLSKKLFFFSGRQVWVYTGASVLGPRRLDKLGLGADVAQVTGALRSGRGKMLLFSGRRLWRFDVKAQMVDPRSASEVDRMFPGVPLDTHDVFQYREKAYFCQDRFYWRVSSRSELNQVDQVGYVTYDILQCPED

Question: What does the source list for CCOC(=O)c1ccc(OCC)c(Nc2nc(-c3sc(N)nc3C)cs2)c1 [Example 81, 3-(2′-Amino-4′-methyl-[4,5′]bithiazolyl-2-ylamino)-4-ethoxy-benzoic acid ethyl ester.TFA]?
Answer: pIC50 [1]: 6.19; pKd [2]: 6.43; pKd [3]: 6.28; pKd [4]: 6.21

Question: COc1cc2c(cc1Nc1nc(-c3sc(C)nc3C)cs1)C(=O)NC2 [Example 31, 6-(2′,4′-Dimethyl-[4,5′]bithiazolyl-2-ylamino)-5-methoxy-2,3-dihydro-isoindol-1-one] was tested. Which pIC50 [1] did it give?
Answer: Its pIC50 is roughly 5.15.

Question: What about the pKd [2] of the same compound?
Answer: Its pKd is 4.31.

Question: And the pKd [3]?
Answer: The pKd was 5.05.

Question: And the pKd [4]?
Answer: The pKd was 4.48.

Question: How did the pIC50 [1] turn out when COc1ccc(C(=O)O)cc1Nc1nc(-c2sc(N)nc2C)cs1 [Example 55, 3-(2′-Amino-4′-methyl-[4,5′]bithiazolyl-2-ylamino)-4-methoxy-benzoic acid.HBr] was run?
Answer: Its pIC50 is 6.13.

Question: What about the pKd [2] of the same compound?
Answer: The pKd was 5.01.

Question: What about the pKd [3] of the same compound?
Answer: Its pKd is 5.60.

Question: What about the pKd [4] of the same compound?
Answer: Its pKd is 5.77.

Question: How did the pIC50 [1] turn out when Cc1nc(C)c(-c2csc(Nc3cc(C(N)=O)ccc3OC(F)(F)F)n2)s1 [Example 17, 3-(2′,4′-Dimethyl-[4,5′]bithiazolyl-2-ylamino)-4-trifluoromethoxy-benzamide] was run?
Answer: The pIC50 was 6.34.

Question: And the pKd [2]?
Answer: Its pKd is 4.92.

Question: And the pKd [3]?
Answer: The pKd was 7.09.

Question: And the pKd [4]?
Answer: The pKd was 6.14.

Question: What does the source list for Cc1nc(N)sc1-c1csc(Nc2cc(S(C)(=O)=O)ccc2OC(C)C)n1 [Example 44, N^2-(2-Isopropoxy-5-methanesulfonyl-phenyl)-4′-methyl-[4,5′]bithiazolyl-2,2′-diamine.TFA]?
Answer: pIC50 [1]: 6.39; pKd [2]: 7.15; pKd [3]: 7.14; pKd [4]: 6.62

Question: What does the source list for Cc1nc(N2CCOCC2)sc1-c1csc(Nc2cc(C(N)=O)ccc2OC(C)C)n1 [Example 89, 4-Isopropoxy-3-(4′-methyl-2′-morpholin-4-yl-[4,5′]bithiazolyl-2-ylamino)-benzamide.TFA]?
Answer: pIC50 [1]: 6.48; pKd [2]: 6.15; pKd [3]: 7.20; pKd [4]: 6.41

Question: What does the source list for Cc1nc(CN2CCN(C(C)C)CC2)sc1-c1csc(Nc2cc(C(N)=O)ccc2OC(C)C)n1 [Example 125, 4-Isopropoxy-3-[2′-(4-isopropyl-piperazin-1-ylmethyl)-4′-methyl-[4,5]bithiazolyl-2-ylamino]-benzamide.TFA]?
Answer: pIC50 [1]: 6.11; pKd [2]: 5.31; pKd [3]: 6.24; pKd [4]: 5.49

Question: With COc1ccc(C(=O)O)cc1Nc1nc(-c2sc(NC(C)=O)nc2C)cs1 [Example 57, 3-(2′-Acetylamino-4′-methyl-[4,5′]bithiazolyl-2-ylamino)-4-methoxy-benzoic acid.HBr] as the compound, how does the pIC50 [1] read?
Answer: Its pIC50 is 5.72.

Question: What about the pKd [2] of the same compound?
Answer: Its pKd is less than 4.02.

Question: What about the pKd [3] of the same compound?
Answer: The pKd was 4.96.

Question: What about the pKd [4] of the same compound?
Answer: The pKd was 5.77.

Question: How did the pIC50 [1] turn out when Cc1nc(C(=O)N(C)C)sc1-c1csc(Nc2cc(C(N)=O)ccc2OC(C)C)n1 [Example 106, 2-(5-Carbamoyl-2-isopropoxy-phenylamino)-4′-methyl-[4,5′]bithiazolyl-2′-carboxylic acid dimethylamide.TFA] was run?
Answer: The pIC50 was 6.04.

Question: And the pKd [2]?
Answer: Its pKd is 5.66.

Question: What about the pKd [3] of the same compound?
Answer: Its pKd is 5.92.

Question: What about the pKd [4] of the same compound?
Answer: Its pKd is 6.30.

Question: Which results are given for COc1ccc(-c2cncn2C)cc1Nc1nc(-c2sc(C)nc2C)cs1 [Example 143, (2′,4′-Dimethyl-[4,5′]bithiazolyl-2-yl)-[2-methoxy-5-(3-methyl-3H-imidazol-4-yl)-phenyl]-amine]?
Answer: pIC50 [1]: ~5.22; pKd [2]: 5.22; pKd [3]: 4.21; pKd [4]: 4.80

Question: With COc1ccc(CC(N)=O)cc1Nc1nc(-c2sc(C)nc2C)cs1 [Example 30, 2-[3-(2′,4′-Dimethyl-[4,5′]bithiazolyl-2-ylamino)-4-methoxy-phenyl]-acetamide] as the compound, how does the pIC50 [1] read?
Answer: Its pIC50 is 5.39.

Question: And the pKd [2]?
Answer: Its pKd is less than 4.02.

Question: And the pKd [3]?
Answer: Its pKd is 4.74.

Question: What about the pKd [4] of the same compound?
Answer: The pKd was 5.31.

Question: With Cc1nc(C)c(-c2csc(Nc3cc(C(N)=O)ccc3OC3CCCC3)n2)s1 [Example 15, 4-Cyclopentyloxy-3-(2′,4′-dimethyl-[4,5′]bithiazolyl-2-ylamino)-benzamide] as the compound, how does the pIC50 [1] read?
Answer: The pIC50 was less than 4.70.

Question: What about the pKd [2] of the same compound?
Answer: Its pKd is 4.89.

Question: And the pKd [3]?
Answer: Its pKd is 5.10.

Question: And the pKd [4]?
Answer: Its pKd is less than 4.02.

— US20120129842A1, “BISTHIAZOLE INHIBITORS OF PRO-MATRIX METALLOPROTEINASE ACTIVATION” (priority 2010, published 2012)
